Source: paper PMC8348142, “Antimicrobial Peptide Modifications against Clinically Isolated Antibiotic-Resistant Salmonella” (Molecules, 2021)
Marks after values point to notes of the source that are not given here. Ends that are not written are not given here.

Tests used:
Format in all cases: cell-based
[1] = system: clinical Salmonella isolates; assay: MBC, drop plate method, and MBC/MIC mode of action; conditions: for MBC: drop plate on MHA from MIC plate, 37 °C, 18 h, thrice
Method: (§1) All 12 isolates of Salmonella used in this study were clinical isolates and anonymous left-overs from laboratory diagnoses. They were maintained in a 20% glycerol (Sigma-Aldrich) stock at −80 °C and further cultured on Mueller-Hinton agar (MHA, Oxoid, Hampshire, UK) at 37 °C for 18 h to obtain single colonies for antimicrobial assays. This study was approved by the Ethics Committee of the Faculty of Tropical Medicine (Mahidol University, Bangkok, Thailand; MUTM-EXMPT 2017-007).
The plate derived from the MIC assay was immediately tested for the MBC using a drop plate method. A volume of 10 µL of the culture from individual wells at MIC, 2MIC, and 4MIC was dropped on MHA plates. […] The experiment was thrice performed.
In order to determine whether the peptides have bacteriostatic or bactericidal activity, a ratio of MBC to MIC (MBC/MIC) was applied. The ratio >4 was indicative of bacteriostatic peptide, and ≤4 was inferred as bactericidal peptide.

[2] = system: clinical Salmonella isolates; assay: MIC, broth microdilution; conditions: MHB, 5 × 10^5 CFU/mL, 37 °C, 18 h, duplicate
Method: as §1
MIC was determined using the broth microdilution method described by Hancock with some modifications. Briefly, bacterial colonies grown from the MHA were prepared in MHB (Oxoid) as a 0.5 McFarland suspension (which is equal to 1 × 10^8 CFU/mL), and was further 200-fold diluted by the MHB (5 × 10^5 CFU/mL). The bacterial suspension (50 µL) was mixed with 2-fold serial dilutions of peptide (5.5 µL) achieving final concentrations of 256 to 1 µM using a round-bottom polypropylene (PP) 96-well plate (Greiner Bio-One). The plate was incubated at 37 °C for 18 h including incubating peptide free-bacteria as positive growth control, and MHB as negative growth control. After the incubation, the lowest concentration with no visible growth was defined as a MIC value. The assay was performed in a duplicate manner.

[3] = system: sheep red blood cells; assay: Hemolytic activity assay; conditions: for percent hemolysis: 2% sRBCs in PBS, 37 °C, 1 h, OD540, triplicate mean
Method: The peptide toxicity to the mammalian system was screened based on the hemolytic test by measuring the hemoglobin released from ruptured red blood cells (RBCs). In this study, sheep RBCs (sRBCs) were employed. They were thrice washed and prepared as a suspension in phosphate-buffered saline (PBS, Oxoid). A suspension of 2% sRBCs was incubated with 2-fold serial dilutions of peptide (final concentrations; 256 to 1 µM in a total volume of 200 µL) at 37 °C for 1 h. The solutions of 0.1% (final concentration) Triton X-100 (Sigma-Aldrich) and PBS containing the peptide solvent were used instead of the peptides as the controls of hemolysis at 100% and 0%, respectively. Thereafter, the post-incubated suspensions were centrifuged (1000× g, 3 min) to pelletize residual sRBCs. The supernatants were then transferred into a flat-bottom PS 96-well plate and were measured the absorbance at 540 nm (OD540) by a microplate reader. The test was conducted in triplicate and the mean OD540 was used to calculate the hemolysis (%) as; ((OD540 (peptide) − OD540 (PBS + peptide solvent))/(OD540 (0.1% Triton X-100) − OD540 (PBS + peptide solvent))) × 100. The hemolytic concentration 50 (HC50), a concentration inducing 50% hemolysis, was determined.
The GraphPad Prism version 7.00 (GraphPad Software, La Jolla, CA, USA) was applied for all statistical analyses and data visualizations. Replicate quantitative results were calculated and shown as mean ± SD, unless otherwise specified. The HC50 values were determined using nonlinear regression analysis. The paired t-test and repeated measures one-way ANOVA with Tukey’s multiple comparison test were applied to compare between 2 groups and among 3 or more groups, respectively. The comparisons were considered as a statistically significant difference when a p-value < 0.05.

Question: What does the source list for FIRRIARLLRRIF [Kn2-5R]?
Answer: GM of MBC ([1]; geometric mean over 12 clinical Salmonella isolates): 8 µM; MBC ([1]; isolate 5 (Enteritidis)): 8 µM; MBC ([1]; isolate 7 (Typhimurium)): 8 µM; MBC ([1]; isolate 11 (I 1,4:i:-)): 8 µM; MBC ([1]; isolate 18 (Stanley)): 8 µM; MBC ([1]; isolate 26 (Typhimurium)): 8 µM; MBC ([1]; isolate 27 (Typhimurium)): 8 µM; MBC ([1]; isolate 55 (Typhimurium)): 8 µM; MBC ([1]; isolate 61 (Enteritidis)): 8 µM; MBC ([1]; isolate 69 (Typhimurium)): 8 µM; MBC ([1]; isolate 76 (Enteritidis)): 8 µM; MBC ([1]; isolate 78 (Enteritidis)): 8 µM; MBC ([1]; isolate 107 (Typhimurium)): 8 µM; MIC ([2]; isolate 5 (Enteritidis, blood; resistant AMP, SXT, KZ)): 8 µM; MIC ([2]; isolate 7 (Typhimurium, blood; resistant AMP, CN, TE, NA, SXT)): 8 µM; MIC ([2]; isolate 11 (I 1,4:i:-, blood; resistant AMP, TE, NA, SXT, C)): 8 µM; MIC ([2]; isolate 18 (Stanley, urine; resistant TE, SXT, C)): 8 µM; MIC ([2]; isolate 26 (Typhimurium, urine; resistant TZP, TE, NA)): 8 µM; MIC ([2]; isolate 27 (Typhimurium, stool; resistant AMP, TE, NA, SXT, CIP)): 8 µM; MIC ([2]; isolate 55 (Typhimurium, blood; resistant AMP, SXT, C, TE)): 8 µM; MIC ([2]; isolate 61 (Enteritidis, blood; resistant AMP, TE, NA, SXT)): 8 µM; MIC ([2]; isolate 69 (Typhimurium, stool; resistant AMP)): 8 µM; MIC ([2]; isolate 76 (Enteritidis, CSF; resistant NA)): 8 µM; MIC ([2]; isolate 78 (Enteritidis, blood; resistant TE, CIP, NA, SXT)): 8 µM; MIC ([2]; isolate 107 (Typhimurium, stool; susceptible)): 8 µM; HC50 (hemolytic concentration 50) ([3]; concentration inducing 50% hemolysis of sRBCs, nonlinear regression, unit (µM)): 886.50 µM; percent hemolysis ([3]; peptide 1 µM): 0%; percent hemolysis ([3]; peptide 2 µM): 0%; percent hemolysis ([3]; peptide 4 µM): 0.4%; percent hemolysis ([3]; peptide 8 µM): 0.7 * %; percent hemolysis ([3]; peptide 16 µM): 1.4%; percent hemolysis ([3]; peptide 32 µM): 1.5%; percent hemolysis ([3]; peptide 64 µM): 1.8%; percent hemolysis ([3]; peptide 128 µM): 2.4%; percent hemolysis ([3]; peptide 256 µM): 10.6%; concentration required for the initiation of hemolysis ([3]; sRBCs, 60 min, 256–1 µM tested): 4 µM
